Laboratory results as given in publication PMC5626944 (Frontiers in Pharmacology, 2017).
Counter-ions that a name gives are not always drawn. Like-named read-outs stand apart in the source and are kept apart here.

Tests used:
WT and α6L9′S mice = test: Locomotor assay in a novel environment; type: in vivo, mouse; settings: for Ambulatory activity in a novel environment: 0.5 μmol/kg ip (nicotine 0.08 mg/kg, TC299423 0.09 mg/kg)
Method: Mice were habituated to the experimental room for 2 h prior to the experiment. Horizontal locomotor activity was recorded using an infrared photobeam activity cage system (San Diego Instruments; San Diego, CA, United States). After habituating to the experimental room, mice were placed singly in a novel cage. Ambulations were recorded when two contiguous photobeams were broken in succession, preventing activity from being recorded by most sedentary animals. Ambulation events were measured for 45 min with four 15 s intervals per min. Mice were given a total of two intraperitoneal (ip) injections. First, mice were pre-injected with saline or 1 mg/kg mecamylamine before being placed in the activity cages.

α3β4 nAChRs = system: α3β4 nAChRs; parameters: method as in Carroll et al., 2015; settings: ref Carroll et al., 2015; cited from earlier work
α7 nAChRs = system: α7 nAChRs; parameters: method as in Carroll et al., 2015; settings: ref Carroll et al., 2015; cited from earlier work
WT mice [1] = test: Marble burying assay; type: in vivo, mouse; settings: 0.3 mg/kg ip
α4β2* nAChRs = α4β2* nAChRs (Mus musculus, UniProt O70174+Q9ERK7); test: biochemical; type: biochemical; settings: 10 μM
Method: Regions of interest were dissected from fresh mouse brains and homogenized in ice-cold isotonic sucrose (0.32 M), buffered with HEPES (5 mM, pH 7.5). The suspension was centrifuged at 12,000 × g for 20 min.
Superfusion proceeded at 0.7 mL/min for 10 min before stimulation with agonist for 20 s. Selected aliquots were perfused with α-CtxMII (50 nM) for 3 min immediately before stimulation. […] Fractions (∼0.1 mL) were collected into 96-well plates at 10 s intervals for 4 min (starting ∼1 min before stimulation).

WT mice [2] = test: Hot plate assay; type: in vivo, mouse; settings: 0.3 mg/kg ip each, 55°C hot plate, p < 0.05
Method: Mice were again habituated to the experimental room for ≥2 h prior to testing. […] This apparatus is a heated metal plate, maintained at 55°C, enclosed by a clear acrylic plastic cylinder (∼10 cm in diameter), within which the mouse is free to move. […] If the mouse urinates during the assay, it is immediately removed from the hot plate. The time that the mouse remains on the hot plate prior to showing signs of discomfort is recorded. Doses were administered using a Latin-square crossover design. A day without testing occurred between each test.

α6β2* nAChRs = α6β2* nAChRs (Mus musculus, UniProt Q9ERK7+Q9R0W9); test: biochemical; type: biochemical; settings: 10 μM
Method: Regions of interest were dissected from fresh mouse brains and homogenized in ice-cold isotonic sucrose (0.32 M), buffered with HEPES (5 mM, pH 7.5). The suspension was centrifuged at 12,000 × g for 20 min. The pellet was re-suspended in the appropriate uptake buffer ([Grady et al., 2001]; [Salminen et al., 2004]; [Marks et al., 2006]) and used immediately.
Superfusion was carried out at 22°C using a buffer containing: NaCl, 128 mM; KCl, 2.4 mM; CaCl2, 3.2 mM; MgSO4, 1.2 mM; KH2PO4, 1.2 mM; HEPES, 25 mM; glucose, 10 mM; ascorbic acid, 1 mM; pargyline, 0.01 mM; 0.1% BSA; nomifensine, 1 μM (to prevent the re-uptake of dopamine); atropine, 1 μM (to prevent muscarinic receptor activation); pH 7.5. Superfusion proceeded at 0.7 mL/min for 10 min before stimulation with agonist for 20 s. Selected aliquots were perfused with α-CtxMII (50 nM) for 3 min immediately before stimulation. This concentration of α-CtxMII was sufficient to inhibit α6β2^∗-nAChRs in the mouse striatum ([Salminen et al., 2004], [2007]). Fractions (∼0.1 mL) were collected into 96-well plates at 10 s intervals for 4 min (starting ∼1 min before stimulation). After adding 0.15 mL of Optiphase SuperMix scintillation cocktail, radioactivity was measured using a 1450 MicroBeta TriLux counter (Perkin Elmer Life Sciences).

[3] = In vitro metabolism in microsomes; type: in vitro ADME; settings: human microsomes
[4] = In vitro metabolism in microsomes; type: in vitro ADME; settings: rat microsomes
CYP2C19 = test: Turnover by recombinantly expressed human cytochrome P450 isoforms; type: in vitro ADME; settings: 100 pmol/mL enzyme, 37 °C
Method: (§1) S2 Table. In vitro metabolism of TC299423, compared w ith varenicline.
(§2) Human Rat microsomes Turnover by human cytochrome P450 isoforms […]
(§3) The assay mixtures (final incubation volume of 125 μL) in 0.255 M phosphate buffer with 0.575% (w/v) KCl (pH 7.4) contained PiB (1.0 μM), […] a recombinantly expressed cytochrome P450 enzyme preparation (1A2, 2C9, 2C19, 2D6, 3A4, and FMO3) at 100 pmol/mL. After a 10 min preincubation at 37 °C, the reaction was initiated by addition of 2.0 mM NADPH and incubated for 60 min. The reactions were terminated by the addition of two volumes of DMSO. Samples were subsequently centrifuged at 4,000 rpm for 10 min. From the resulting supernatant, 10 μ L was analyzed by liquid chromatography/tandem mass spectrometry (LC-MS/MS). Control experiments were performed by substituting the active enzyme preparation by cell preparations containing no recombinant human CYP. a, Data for clearance are given as μL /min/mg protein. […]
(§4) c, Data for cytochrome P450 turnover and for human flavin- containing monooxygenase 3 (FMO3) are given as percent decline over 60 min.

CYP3A4 = test: as above; type: in vitro ADME; settings: 100 pmol/mL enzyme, 37 °C
Method: as §1, §2, §3, §4

CYP2C9 = test: as above; type: in vitro ADME; settings: 100 pmol/mL enzyme, 37 °C
Method: as §1, §2, §3, §4

CYP1A2 = test: as above; type: in vitro ADME; settings: 100 pmol/mL enzyme, 37 °C
Method: as §1, §2, §3, §4

CYP2D6 = test: as above; type: in vitro ADME; settings: 100 pmol/mL enzyme, 37 °C
Method: as §1, §2, §3, §4

Chain of α6β2* nAChRs (Q9R0W9 31-494): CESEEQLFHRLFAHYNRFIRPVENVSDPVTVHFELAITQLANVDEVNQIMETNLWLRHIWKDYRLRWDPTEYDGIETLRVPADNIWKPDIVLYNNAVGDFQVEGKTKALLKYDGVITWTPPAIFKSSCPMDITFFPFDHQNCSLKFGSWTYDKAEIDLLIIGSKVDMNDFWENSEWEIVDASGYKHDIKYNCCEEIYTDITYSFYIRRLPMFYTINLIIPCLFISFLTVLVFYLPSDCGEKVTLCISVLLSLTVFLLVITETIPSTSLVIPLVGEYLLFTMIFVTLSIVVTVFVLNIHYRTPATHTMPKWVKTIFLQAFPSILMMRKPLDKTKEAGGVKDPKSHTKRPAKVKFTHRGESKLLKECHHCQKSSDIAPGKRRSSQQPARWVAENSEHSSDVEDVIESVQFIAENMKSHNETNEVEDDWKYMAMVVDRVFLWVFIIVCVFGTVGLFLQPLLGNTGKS
Chain of α6β2* nAChRs (Q9ERK7 26-501): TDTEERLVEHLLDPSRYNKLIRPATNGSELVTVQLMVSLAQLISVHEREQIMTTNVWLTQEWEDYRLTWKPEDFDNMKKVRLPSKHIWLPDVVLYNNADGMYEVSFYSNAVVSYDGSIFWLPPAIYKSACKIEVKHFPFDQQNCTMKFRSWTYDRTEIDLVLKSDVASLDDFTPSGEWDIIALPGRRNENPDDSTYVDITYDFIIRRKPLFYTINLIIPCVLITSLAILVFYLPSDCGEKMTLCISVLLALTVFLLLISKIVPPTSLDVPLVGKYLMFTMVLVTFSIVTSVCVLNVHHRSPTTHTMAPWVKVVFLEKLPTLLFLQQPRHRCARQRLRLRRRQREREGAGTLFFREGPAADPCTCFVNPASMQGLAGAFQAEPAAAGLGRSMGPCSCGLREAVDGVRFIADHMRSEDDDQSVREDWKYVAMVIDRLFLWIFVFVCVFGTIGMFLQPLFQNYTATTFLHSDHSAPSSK
Chain of α6β2* nAChRs (Q8BMN3 31-464 partner): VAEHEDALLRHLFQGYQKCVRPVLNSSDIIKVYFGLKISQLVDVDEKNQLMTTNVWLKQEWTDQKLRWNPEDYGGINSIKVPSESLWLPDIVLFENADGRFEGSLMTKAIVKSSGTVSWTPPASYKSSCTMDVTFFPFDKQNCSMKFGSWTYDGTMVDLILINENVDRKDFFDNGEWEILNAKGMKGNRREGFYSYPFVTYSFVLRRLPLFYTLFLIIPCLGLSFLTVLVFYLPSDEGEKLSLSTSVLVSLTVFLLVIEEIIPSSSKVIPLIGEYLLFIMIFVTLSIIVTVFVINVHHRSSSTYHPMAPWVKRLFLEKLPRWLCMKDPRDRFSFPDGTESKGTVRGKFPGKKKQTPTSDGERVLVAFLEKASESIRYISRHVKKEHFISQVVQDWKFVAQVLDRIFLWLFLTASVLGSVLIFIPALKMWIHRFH
Chain of α4β2* nAChRs (O70174 31-629): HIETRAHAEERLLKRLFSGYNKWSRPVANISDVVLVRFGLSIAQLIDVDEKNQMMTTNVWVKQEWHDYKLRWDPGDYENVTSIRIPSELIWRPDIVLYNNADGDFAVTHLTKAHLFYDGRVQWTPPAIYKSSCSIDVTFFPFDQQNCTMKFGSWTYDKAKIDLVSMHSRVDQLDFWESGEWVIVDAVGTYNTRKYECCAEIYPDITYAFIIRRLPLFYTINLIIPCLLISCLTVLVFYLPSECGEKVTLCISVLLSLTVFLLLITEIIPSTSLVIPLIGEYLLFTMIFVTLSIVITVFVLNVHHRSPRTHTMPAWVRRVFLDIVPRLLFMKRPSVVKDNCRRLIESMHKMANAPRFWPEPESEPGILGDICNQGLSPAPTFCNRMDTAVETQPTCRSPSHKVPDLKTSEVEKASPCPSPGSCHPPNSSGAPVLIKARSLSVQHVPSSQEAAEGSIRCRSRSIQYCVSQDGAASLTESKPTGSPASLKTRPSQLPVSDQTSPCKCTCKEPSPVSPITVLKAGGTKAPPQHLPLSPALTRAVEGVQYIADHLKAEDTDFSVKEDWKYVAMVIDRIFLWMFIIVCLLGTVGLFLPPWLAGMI
Chain of α4β2* nAChRs (Q9ERK7 26-501): as the sequence (Q9ERK7 26-501) above

SMILES: CNC1(C)C2CCC(C2)C1(C)C (centres unmarked) [mecamylamine]
- Effect of pre-injection on nicotine- and TC299423-induced increases in ambulation (WT and α6L9′S mice; α6L9′S mice, 1 mg/kg ip pre-injection): blocked

SMILES: c1cc2c(cn1)[C@@H]1CC[C@H](CCC2)N1 [PHT, (+)-pyrido[3,4]homotropane]
- EC50 (α3β4 nAChRs): 430 nM
- EC50 (α7 nAChRs): 660 nM

SMILES: CN1CCC[C@H]1c1cccnc1 [nicotine, (L)-nicotine hydrogen tartrate]
- Marbles buried compared with saline (WT mice [1]): significantly fewer marbles
- Marbles buried compared with varenicline (WT mice [1]; p < 0.001): fewer marbles
- α-CtxMII-resistant [3H]-dopamine release elicited (α4β2* nAChRs): 7.78 ± 0.83 units
- Ambulatory activity in a novel environment (WT and α6L9′S mice; WT mice): Neither TC299423 nor nicotine affected WT ambulation
- Ambulatory activity in a novel environment (WT and α6L9′S mice; α6L9′S mice): dramatically increased the ambulatory activity
- Antinociceptive effect compared with varenicline (WT mice [2]): significantly greater than that of varenicline
- α-CtxMII-sensitive [3H]-dopamine release elicited (α6β2* nAChRs): 3.63 ± 0.81 units

SMILES: c1cnc2cc3c(cc2n1)[C@@H]1CNC[C@H]3C1 [varenicline, Varenicline tartrate, reference compound]
- Marbles buried compared with saline (WT mice [1]): significantly fewer marbles
- half-life [3]: 43 min
- microsomal CLint ([3]; read-out: Clearance): 39 µL/min/mg
- half-life [4]: 10 min
- microsomal CLint ([4]; read-out: Clearance): 233 µL/min/mg
- Turnover by CYP2C19 (CYP2C19): 0 percent decline over 60 min
- Turnover by CYP3A4 (CYP3A4): 50 percent decline over 60 min
- Turnover by CYP2C9 (CYP2C9): 0 percent decline over 60 min
- Turnover by CYP1A2 (CYP1A2): 7 percent decline over 60 min
- Turnover by CYP2D6 (CYP2D6): 39 percent decline over 60 min
